In publication PMC10276006, “Mechanisms of simultaneous linear and nonlinear computations at the mammalian cone photoreceptor synapse” (Nature Communications, 2023):

How the values were obtained:
[1] = tested on: T1, cb1a cell KARs (kainate receptors of cb1a Off bipolar cells); conditions: mean of n = 6 somas (Hill n 1.11); 35 µM GYKI 53655 blocks AMPA receptors; pH 7.4; 32-33 °C
T1 construct: gene GRIK1

[2] = tested on: T1, cb1a cell KARs (kainate receptors of cb1a Off bipolar cells); conditions: desensitization by glutamate; supplement only
[3] = tested on: T2, cone glutamate transporter (TBOA-sensitive; EAAT5 immunolabelled at cone terminal); conditions: read-out: steady state EC50
T2 construct: gene SLC1A7

## N[C@@H](CCC(=O)O)C(=O)O [glutamate]
[1]
  EC50: 1400 ± 160 µM
[2]
  IC50: 30.4 ± 10.2 µM
[3]
  EC50: 0.71 µM
